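Briefly, cells in 96-well plates were exposed to five compound concentrations for 48 h, and endpoints were estimated by linear interpolation. GI50 is the concentration that inhibits growth by half.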 Calls of active or inactive are those of the source. No stated cut-off is given here; in the data, active = GI50 up to about 1.1 µM and inactive = higher.
What was measured:
Experiment in all cases: DTP human tumour cell line panel, 48 h
[1] = tested on: 786-0
[2] = tested on: COLO 205
[3] = tested on: HL-60
[4] = tested on: HOP-62
[5] = tested on: HOP-92
[6] = tested on: IGROV-1
[7] = tested on: MDA-MB-435
[8] = tested on: Malme-3M
[9] = tested on: NCI-H522
[10] = tested on: NCI/ADR-RES
[11] = tested on: OVCAR-4
[12] = tested on: RPMI-8226
[13] = tested on: RXF 393
[14] = tested on: SF-295
[15] = tested on: SK-MEL-28
[16] = tested on: SR
[17] = tested on: T47D
[18] = tested on: TK-10
[19] = tested on: U-251
[20] = tested on: UO-31

| Compound | GI50 [1] | GI50 [2] | GI50 [3] | GI50 [4] | GI50 [5] | GI50 [6] | GI50 [7] | GI50 [8] | GI50 [9] | GI50 [10] | GI50 [11] | GI50 [12] | GI50 [13] | GI50 [14] | GI50 [15] | GI50 [16] | GI50 [17] | GI50 [18] | GI50 [19] | GI50 [20] |
| --- | --- | --- | --- | --- | --- | --- | --- | --- | --- | --- | --- | --- | --- | --- | --- | --- | --- | --- | --- | --- |
| CCN(CC)c1ccc(C2NC(=O)c3ccccc3N2)cc1 (stereo not drawn) | 2.99 µM (inactive) | 1.63 µM (inactive) | 0.522 µM (active) | 5.7 µM (inactive) | 3.05 µM (inactive) | 5.24 µM (inactive) | 0.698 µM (active) | > 28.4 µM (inactive) | 14.8 µM (inactive) | 1.85 µM (inactive) | > 100 µM (inactive) | 3.37 µM (inactive) | 7.52 µM (inactive) | 3.01 µM (inactive) | > 100 µM (inactive) | 0.557 µM (active) | > 100 µM (inactive) | > 100 µM (inactive) | 4.34 µM (inactive) | > 24.5 µM (inactive) |
| O=c1[nH]nc(-c2ccccc2)n1/N=C/c1ccncc1 | > 100 µM (inactive) | 54 µM (inactive) | > 100 µM (inactive) | > 100 µM (inactive) | > 100 µM (inactive) | > 100 µM (inactive) | > 100 µM (inactive) | > 100 µM (inactive) | > 100 µM (inactive) | > 100 µM (inactive) | > 100 µM (inactive) | > 100 µM (inactive) | 62.5 µM (inactive) | > 100 µM (inactive) | > 100 µM (inactive) | 74.1 µM (inactive) | > 100 µM (inactive) | > 100 µM (inactive) | > 100 µM (inactive) | 46.3 µM (inactive) |
| c1ccc2cc(CN3CCC(C4CCN(Cc5ccc6ccccc6c5)CC4)CC3)ccc2c1 | 2.45 µM (inactive) | 1.76 µM (inactive) | 1.53 µM (inactive) | 2.49 µM (inactive) | 4.1 µM (inactive) | 6.4 µM (inactive) | 1.75 µM (inactive) | 1.19 µM (inactive) | 1.89 µM (inactive) | 6.79 µM (inactive) | 6.21 µM (inactive) | 2.48 µM (inactive) | 2.74 µM (inactive) | 1.9 µM (inactive) | 1.87 µM (inactive) | 3.24 µM (inactive) | 4.76 µM (inactive) | 3.82 µM (inactive) | 2.33 µM (inactive) | 1.34 µM (inactive) |
| CCN(CC)C(=O)Cn1c(C)cc2ccccc21 | > 100 µM (inactive) | > 100 µM (inactive) | > 100 µM (inactive) | > 100 µM (inactive) | > 100 µM (inactive) | > 100 µM (inactive) | > 100 µM (inactive) | > 100 µM (inactive) | > 100 µM (inactive) | > 100 µM (inactive) | > 100 µM (inactive) | > 100 µM (inactive) | > 100 µM (inactive) | > 100 µM (inactive) | > 100 µM (inactive) | > 100 µM (inactive) | > 100 µM (inactive) | > 100 µM (inactive) | > 100 µM (inactive) | > 100 µM (inactive) |
| OCCC/N=C1N=C(Cl)/C(=C\c2ccccc2)N\1 | > 100 µM (inactive) | > 100 µM (inactive) | > 100 µM (inactive) |  | > 100 µM (inactive) | > 100 µM (inactive) | > 100 µM (inactive) | > 100 µM (inactive) | > 100 µM (inactive) | > 100 µM (inactive) | > 100 µM (inactive) | > 100 µM (inactive) | > 100 µM (inactive) | > 100 µM (inactive) | > 100 µM (inactive) | > 100 µM (inactive) | > 100 µM (inactive) | > 100 µM (inactive) | > 100 µM (inactive) | > 100 µM (inactive) |
| COc1ccc(/C=C2\N=C(c3ccccc3)N(NC3=NC(=O)CC(=O)N3)C2=O)cc1 | > 100 µM (inactive) | > 100 µM (inactive) | > 100 µM (inactive) | > 100 µM (inactive) | > 100 µM (inactive) | > 100 µM (inactive) | > 100 µM (inactive) | > 100 µM (inactive) | > 100 µM (inactive) | > 100 µM (inactive) | > 100 µM (inactive) | > 100 µM (inactive) | > 100 µM (inactive) |  | > 100 µM (inactive) | > 100 µM (inactive) | > 100 µM (inactive) | > 100 µM (inactive) | > 100 µM (inactive) | > 100 µM (inactive) |
| COc1cccc(Nc2nc(N)nc(N)c2N=O)c1 | 19 µM (inactive) | 24.4 µM (inactive) | 19.1 µM (inactive) | 28.8 µM (inactive) | 7.14 µM (inactive) | 2.38 µM (inactive) | 16.9 µM (inactive) | 29.2 µM (inactive) | 8.65 µM (inactive) | 17.1 µM (inactive) | 31.8 µM (inactive) | 16.9 µM (inactive) | 28.6 µM (inactive) | 27 µM (inactive) | 22 µM (inactive) | 18.5 µM (inactive) | 2.12 µM (inactive) | 19.8 µM (inactive) | 31.8 µM (inactive) | 9.4 µM (inactive) |

Source: ChEMBL document CHEMBL1201862, “PubChem BioAssay data set” (2004)
